“And” between values parts separate entries of the source, which are not always exact repeats. Equal entries are not always repeated. Toxic doses and inconclusive results are not listed. The calls were made as follows: active = survival T/C of 150% or more; inactive = T/C below 125% in these data. Where a SMILES comes first, the peptide text is derived from it. [ ]: non-standard residue; d: D form. The star is where a group is joined. Cbz = O=C(OCc1ccccc1)*; Nva = CCC[CH](N)C(=O)O
System: B6C3F1 mice, B16 melanoma ip, median survival T/C
Assay: NCI In Vivo Anticancer Drug Screen. Data for tumor model B16 Melanoma (intraperitoneal) in B6C3F1 mice
Details: endpoint: median survival time, higher = longer survival
How it was run: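 Antitumor effect was judged in mice with transplanted tumors by dividing the treated group's survival measure by that of vehicle controls.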

[1] = dose: 25.0 mg/kg/injection, schedule: Q01DX009 (ip), vehicle: Klucel (hydroxypropylcellulose) (HPC)
[2] = dose: 50.0 mg/kg/injection, schedule: Q01DX009 (ip), vehicle: Klucel (hydroxypropylcellulose) (HPC)
[3] = dose: 100.0 mg/kg/injection, schedule: Q01DX009 (ip), vehicle: Klucel (hydroxypropylcellulose) (HPC)
[4] = dose: 200.0 mg/kg/injection, schedule: Q01DX009 (ip), vehicle: Klucel (hydroxypropylcellulose) (HPC)
[5] = dose: 400.0 mg/kg/injection, schedule: Q01DX009 (ip), vehicle: Klucel (hydroxypropylcellulose) (HPC)
[6] = dose: 6.25 mg/kg/injection, schedule: Q01DX009 (ip), vehicle: saline with Tween-80
[7] = dose: 12.5 mg/kg/injection, schedule: Q01DX009 (ip), vehicle: saline with Tween-80
[8] = dose: 25.0 mg/kg/injection, schedule: Q01DX009 (ip), vehicle: saline with Tween-80
[9] = dose: 50.0 mg/kg/injection, schedule: Q01DX009 (ip), vehicle: saline with Tween-80
[10] = dose: 100.0 mg/kg/injection, schedule: Q01DX009 (ip), vehicle: saline with Tween-80
[11] = dose: 200.0 mg/kg/injection, schedule: Q01DX009 (ip), vehicle: saline with Tween-80

Measured: T/C

COCC1OC2OC3C(COC)OC(OC4C(COC)OC(OC5C(COC)OC(OC6C(COC)OC(OC7C(COC)OC(OC8C(COC)OC(OC1C(O)C2O)C(O)C8O)C(O)C7O)C(O)C6O)C(O)C5O)C(O)C4O)C(O)C3O (stereo unspecified) (tested in a mixture with another compound)
inactive: [1] 87 % of control | dose: 25.0 mg/kg/injection, schedule: Q04HX027 (ip), vehicle: Klucel (hydroxypropylcellulose) (HPC) 93 % of control | [2] 90 % of control | dose: 50.0 mg/kg/injection, schedule: Q01DX009 (oral), vehicle: Klucel (hydroxypropylcellulose) (HPC) 93 % of control | dose: 50.0 mg/kg/injection, schedule: Q04HX027 (ip), vehicle: Klucel (hydroxypropylcellulose) (HPC) 86 % of control | dose: 50.0 mg/kg/injection, schedule: Q04HX027 (oral), vehicle: Klucel (hydroxypropylcellulose) (HPC) 97 % of control | [3] 105 % of control | dose: 100.0 mg/kg/injection, schedule: Q01DX009 (oral), vehicle: Klucel (hydroxypropylcellulose) (HPC) 89 % of control and 93 % of control | dose: 100.0 mg/kg/injection, schedule: Q04HX027 (ip), vehicle: Klucel (hydroxypropylcellulose) (HPC) 97 % of control | dose: 100.0 mg/kg/injection, schedule: Q04HX027 (oral), vehicle: Klucel (hydroxypropylcellulose) (HPC) 106 % of control | [4] 90 % of control | dose: 200.0 mg/kg/injection, schedule: Q04HX027 (oral), vehicle: Klucel (hydroxypropylcellulose) (HPC) 105 % of control | [5] 86 % of control | dose: 400.0 mg/kg/injection, schedule: Q01DX009 (oral), vehicle: Klucel (hydroxypropylcellulose) (HPC) 86 % of control and 102 % of control | dose: 400.0 mg/kg/injection, schedule: Q04HX027 (oral), vehicle: Klucel (hydroxypropylcellulose) (HPC) 101 % of control | dose: 800.0 mg/kg/injection, schedule: Q01DX009 (oral), vehicle: Klucel (hydroxypropylcellulose) (HPC) 93 % of control | dose: 800.0 mg/kg/injection, schedule: Q04HX027 (oral), vehicle: Klucel (hydroxypropylcellulose) (HPC) 110 % of control | dose: 1600.0 mg/kg/injection, schedule: Q01DX009 (oral), vehicle: Klucel (hydroxypropylcellulose) (HPC) 92 % of control | dose: 1600.0 mg/kg/injection, schedule: Q04HX027 (oral), vehicle: Klucel (hydroxypropylcellulose) (HPC) 103 % of control | dose: 3200.0 mg/kg/injection, schedule: Q01DX009 (oral), vehicle: Klucel (hydroxypropylcellulose) (HPC) 95 % of control

CC(C)(O)[C@H]1[C@@H]2OC(=O)[C@H]1[C@]1(O)C[C@H]3OC34C(=O)O[C@H]2[C@@]41C (stereo partly specified) (tested in a mixture with another compound)
inactive: dose: 0.25 mg/kg/injection, schedule: Q01DX009 (ip), vehicle: Klucel (hydroxypropylcellulose) (HPC) 110 % of control | dose: 0.5 mg/kg/injection, schedule: Q01DX009 (ip), vehicle: Klucel (hydroxypropylcellulose) (HPC) 99 % of control | dose: 1.0 mg/kg/injection, schedule: Q01DX009 (ip), vehicle: Klucel (hydroxypropylcellulose) (HPC) 108 % of control | dose: 2.0 mg/kg/injection, schedule: Q01DX009 (ip), vehicle: Klucel (hydroxypropylcellulose) (HPC) 111 % of control

CN(C)N=Nc1cccc2c1N(C)c1ccc(Cl)cc1S2
inactive: dose: 6.25 mg/kg/injection, schedule: Q01DX009 (ip), vehicle: other 109 % of control | dose: 12.5 mg/kg/injection, schedule: Q01DX009 (ip), vehicle: other 108 % of control | dose: 25.0 mg/kg/injection, schedule: Q01DX009 (ip), vehicle: other 103 % of control | dose: 50.0 mg/kg/injection, schedule: Q01DX009 (ip), vehicle: other 104 % of control | dose: 100.0 mg/kg/injection, schedule: Q01DX009 (ip), vehicle: other 89 % of control

CC12CC3OC(=O)C1COC14OC5(C2C1=O)C(O)(CCC1C4CC2OC24CC=CC(=O)C14C)C(=O)OC35C (stereo unspecified)
inactive: dose: 7.5 mg/kg/injection, schedule: Q01DX009 (ip), vehicle: Klucel (hydroxypropylcellulose) (HPC) 88 % of control | dose: 15.0 mg/kg/injection, schedule: Q01DX009 (ip), vehicle: Klucel (hydroxypropylcellulose) (HPC) 93 % of control | dose: 30.0 mg/kg/injection, schedule: Q01DX009 (ip), vehicle: Klucel (hydroxypropylcellulose) (HPC) 99 % of control

C[n+]1c(/C=N/NC(N)=S)ccc2ccccc21
inactive: [6] 92 % of control | [7] 87 % of control | [8] 92 % of control | [9] 94 % of control | [10] 92 % of control

CCCC(NC(=O)OCc1ccccc1)C(=O)NC(CC(C)C)C(=O)O (stereo unspecified) (Cbz-[Nva]-Leu-OH; configuration not given here)
inactive: [3] 104 % of control | [4] 104 % of control | [5] 96 % of control

O=C(O)C1Cc2nc[nH]c2CN1CO (stereo unspecified)
inactive: [7] 104 % of control | [8] 102 % of control | [9] 105 % of control | [10] 109 % of control | [11] 106 % of control | dose: 400.0 mg/kg/injection, schedule: Q01DX009 (ip), vehicle: saline with Tween-80 104 % of control

CNC(=O)Oc1ccc[nH]c1=O
inactive: dose: 16.0 mg/kg/injection, schedule: Q01DX009 (ip), vehicle: saline with Tween-80 101 % of control | dose: 32.0 mg/kg/injection, schedule: Q01DX009 (ip), vehicle: saline with Tween-80 100 % of control | dose: 64.0 mg/kg/injection, schedule: Q01DX009 (ip), vehicle: saline with Tween-80 101 % of control | dose: 128.0 mg/kg/injection, schedule: Q01DX009 (ip), vehicle: saline with Tween-80 100 % of control | dose: 256.0 mg/kg/injection, schedule: Q01DX009 (ip), vehicle: saline with Tween-80 95 % of control

N[C@@H](Cc1c[nH]c2ccccc12)C(=O)Nc1nncs1
inactive: dose: 50.0 mg/kg/injection, schedule: Q01DX009 (ip), vehicle: suspension in saline 94 % of control | dose: 100.0 mg/kg/injection, schedule: Q01DX009 (ip), vehicle: suspension in saline 95 % of control | dose: 200.0 mg/kg/injection, schedule: Q01DX009 (ip), vehicle: suspension in saline 103 % of control | dose: 400.0 mg/kg/injection, schedule: Q01DX009 (ip), vehicle: suspension in saline 106 % of control | dose: 800.0 mg/kg/injection, schedule: Q01DX009 (ip), vehicle: suspension in saline 109 % of control

CC(C)(C)OC(=O)NC(CCCCNC(=O)C(F)(F)F)C(=O)O (stereo unspecified)
inactive: dose: 6.25 mg/kg/injection, schedule: Q01DX009 (ip), vehicle: Klucel (hydroxypropylcellulose) (HPC) 109 % of control | dose: 12.5 mg/kg/injection, schedule: Q01DX009 (ip), vehicle: Klucel (hydroxypropylcellulose) (HPC) 99 % of control | [1] 89 % of control and 99 % of control | [2] 88 % of control and 96 % of control | [3] 96 % of control

CC(C)(C)OC(=O)NC(CO)C(=O)O (stereo unspecified)
inactive: [9] 95 % of control | [10] 95 % of control | [11] 90 % of control

O=C(Nc1cc(Cl)ccc1C(=O)O)c1cccc(C[n+]2ccccc2)c1
inactive: [8] 101 % of control | [9] 94 % of control | [10] 94 % of control

CC(C)=CCC/C(C)=C\C=N\NS(=O)(=O)c1ccc([N+](=O)[O-])cc1
inactive: [6] 89 % of control | [7] 93 % of control | [8] 100 % of control | [9] 94 % of control

C1CCC(NC2CCCCC2)CC1
inactive: dose: 25.0 mg/kg/injection, schedule: Q01DX009 (ip), vehicle: saline 86 % of control | dose: 50.0 mg/kg/injection, schedule: Q01DX009 (ip), vehicle: saline 101 % of control | dose: 100.0 mg/kg/injection, schedule: Q01DX009 (ip), vehicle: saline 106 % of control | dose: 200.0 mg/kg/injection, schedule: Q01DX009 (ip), vehicle: saline 86 % of control | dose: 400.0 mg/kg/injection, schedule: Q01DX009 (ip), vehicle: saline 104 % of control

O=S(=O)(CCl)OCCCl
inactive: [6] 97 % of control and 100 % of control | [7] 108 % of control and 113 % of control and 103 % of control | [8] 114 % of control and 115 % of control and 102 % of control | [9] 109 % of control and 100 % of control | [10] 110 % of control

From PubChem BioAssay AID200 (DTP/NCI, 2004)
